Test results as given in patent US9296741B2, “Bromodomain inhibitors” (priority 2012, dated 2016).

Assays:
[1] = biological target: human BRD4 second bromodomain (BDII_E352-M457) (Homo sapiens (Human), UniProt O60885); assay: TR-FRET bromodomain binding assay, BRD4 second bromodomain
[2] = Rat liver microsome stability assay; format: in vitro ADME; settings: rat liver microsomes (male Sprague-Dawley), 0.5 μM test compound, pH 7.4, 37° C.; for half-life at 0.5 μM: 0.25 mg/mL microsomal protein, read-out: Stability in rat liver microsomes (t1/2 in minutes)
[3] = Mouse liver microsome stability assay; format: in vitro ADME; settings: male, CD1, mouse, microsomes, pH 7.4
[4] = Human liver microsome stability assay; format: in vitro ADME; settings: both sexes, human, microsomes, pH 7.4
[5] = biological target: human BRD4 first bromodomain (BDI_K57-E168) (Homo sapiens (Human), UniProt O60885); assay: TR-FRET bromodomain binding assay, BRD4 first bromodomain
[6] = test system: breast cancer cell line MX-1; assay: MX-1 cell line proliferation assay; format: cell-based, human; settings: Homo sapiens, MX1, 72 h; MX-1 cells, 3-day proliferation, Cell Titer Glo; read-out: Cellular proliferation: EC50

| SMILES | Ki [1] | half-life at 0.5 μM [2] | half-life at 0.5 μM [3] | half-life at 0.5 μM [4] | Ki [5] | EC50 [6] | Stability in rat liver microsomes (t1/2 in minutes) ([2]; […] microsomal protein) |
| --- | --- | --- | --- | --- | --- | --- | --- |
| Cn1cc(-c2cc(C(=O)NCc3ccccn3)ccc2Oc2ccc(F)cc2F)c2cc[nH]c2c1=O [Example 129, 4-(2,4-difluorophenoxy)-3-(6-methyl-7-oxo-6,7-dihydro-1H-pyrrolo[2,3-c]pyridin-4-yl)-N-(pyridin-2-ylmethyl)benzamide] | 45.6 nM | 38 min | 12 min | 54 min | 37.9 nM | 118 nM |  |
| Cn1cc(-c2cc(S(C)(=O)=O)ccc2Nc2ccc(F)cc2)c2cc[nH]c2c1=O [Example 332, 4-{2-[(4-fluorophenyl)amino]-5-(methylsulfonyl)phenyl}-6-methyl-1,6-dihydro-7H-pyrrolo[2,3-c]pyridin-7-one] | 30.6 nM | 70 min | > 120 min | 65 min | 30.4 nM | 53.1 nM |  |
| CC(=O)Nc1ccc(Oc2ccc(F)cc2F)c(-c2cn(C)c(=O)c3[nH]ccc23)c1 [Example 37, N-[4-(2,4-difluorophenoxy)-3-(6-methyl-7-oxo-6,7-dihydro-1H-pyrrolo[2,3-c]pyridin-4-yl)phenyl]acetamide] | 10.8 nM | 54 min | 3 min | 88.9 min | 11.3 nM | 59.3 nM |  |
| Cn1cc(-c2cc(NS(=O)(=O)CCN3CCOCC3)ccc2Oc2ccc(F)cc2F)c2cc[nH]c2c1=O [Example 295, N-[4-(2,4-difluorophenoxy)-3-(6-methyl-7-oxo-6,7-dihydro-1H-pyrrolo[2,3-c]pyridin-4-yl)phenyl]-2-(morpholin-4-yl)ethanesulfonamide] | 30.7 nM | 15 min | 3 min | 7 min | 27.9 nM | 223 nM |  |
| CCS(=O)(=O)c1ccc(OC2CCN(C)CC2)c(-c2cn(C)c(=O)c3[nH]ccc23)c1 [Example 170, 4-{5-(ethylsulfonyl)-2-[(1-methylpiperidin-4-yl)oxy]phenyl}-6-methyl-1,6-dihydro-7H-pyrrolo[2,3-c]pyridin-7-one] | 94 nM | 113 min | 27 min | > 120 min | 22.8 nM | 332 nM |  |
| Cn1cc(-c2cc(S(=O)(=O)N3CCc4ccccc43)ccc2Oc2ccc(F)cc2F)c2cc[nH]c2c1=O [Example 319, 4-[2-(2,4-difluorophenoxy)-5-(2,3-dihydro-1H-indol-1-ylsulfonyl)phenyl]-6-methyl-1,6-dihydro-7H-pyrrolo[2,3-c]pyridin-7-one] | 9.9 nM | 2 min | 2 min | 2 min | 372 nM | 435 nM |  |
| Cn1cc(-c2cc(CC#N)ccc2OCC2CC2)c2cc[nH]c2c1=O [Example 336, [4-(cyclopropylmethoxy)-3-(6-methyl-7-oxo-6,7-dihydro-1H-pyrrolo[2,3-c]pyridin-4-yl)phenyl]acetonitrile] | 152 nM | 5 min | 17 min | 44 min | 76.2 nM | 115 nM |  |
| CCS(=O)(=O)Nc1ccc(Oc2cncnc2)c(-c2cn(C)c(=O)c3[nH]ccc23)c1 [Example 141, N-[3-(6-methyl-7-oxo-6,7-dihydro-1H-pyrrolo[2,3-c]pyridin-4-yl)-4-(pyrimidin-5-yloxy)phenyl]ethanesulfonamide] | 15.2 nM | 110 min | 49 min | > 120 min | 5.4 nM | 125 nM |  |
| Cn1cc(-c2cc(S(=O)(=O)C(F)(F)F)ccc2NCC2CC2)c2cc[nH]c2c1=O [Example 244, 4-{2-[(cyclopropylmethyl)amino]-5-[(trifluoromethyl)sulfonyl]phenyl}-6-methyl-1,6-dihydro-7H-pyrrolo[2,3-c]pyridin-7-one] | 73.7 nM | 6 min | 87 min | 53 min | 23.2 nM | 254 nM |  |
| Cn1cc(-c2cc(S(C)(=O)=O)ccc2Oc2cccc(C(F)(F)F)c2)c2cc[nH]c2c1=O [Example 157, 6-methyl-4-{5-(methylsulfonyl)-2-[3-(trifluoromethyl)phenoxy]phenyl}-1,6-dihydro-7H-pyrrolo[2,3-c]pyridin-7-one] | 21.8 nM | 53 min | 12 min | 27 min | 30.8 nM | 150 nM |  |

These reach a lower Ki [1]. Values come first.

| Ki [1] | half-life at 0.5 μM [2] | half-life at 0.5 μM [3] | half-life at 0.5 μM [4] | Ki [5] | EC50 [6] | Stability in rat liver microsomes (t1/2 in minutes) ([2]; […] microsomal protein) | SMILES |
| --- | --- | --- | --- | --- | --- | --- | --- |
| 1.9 nM | 12 min | 11 min | 23 min | 2.9 nM | 21.3 nM |  | CC(C)S(=O)(=O)c1ccc(Oc2ccc(F)cc2F)c(-c2cn(C)c(=O)c3[nH]ccc23)c1 [Example 271, 4-[2-(2,4-difluorophenoxy)-5-(propan-2-ylsulfonyl)phenyl]-6-methyl-1,6-dihydro-7H-pyrrolo[2,3-c]pyridin-7-one] |
| 4.2 nM | > 120 min | > 120 min | > 120 min | 4.3 nM | 15.8 nM |  | CCS(=O)(=O)Nc1ccc(Oc2ccc(F)cc2F)c(-c2cn(C)c(=O)c3[nH]c(CO)cc23)c1 [Example 337, N-{4-(2,4-difluorophenoxy)-3-[2-(hydroxymethyl)-6-methyl-7-oxo-6,7-dihydro-1H-pyrrolo[2,3-c]pyridin-4-yl]phenyl}ethanesulfonamide] |
| 1.2 nM | 2 min | 5 min | 34.9 min | 1.7 nM | 16.9 nM |  | Cn1cc(-c2cc(N3CCCS3(=O)=O)ccc2Oc2ccc(F)cc2F)c2cc[nH]c2c1=O [Example 43, 4-[2-(2,4-difluorophenoxy)-5-(1,1-dioxido-1,2-thiazolidin-2-yl)phenyl]-6-methyl-1,6-dihydro-7H-pyrrolo[2,3-c]pyridin-7-one] |
| 1.5 nM | 13 min | 7 min | > 120 min | 0.52 nM | 16 nM |  | CCS(=O)(=O)Nc1ccc(OC2CCCOC2)c(-c2cn(C)c(=O)c3[nH]ccc23)c1 (stereo not drawn) [Example 105, N-[3-(6-methyl-7-oxo-6,7-dihydro-1H-pyrrolo[2,3-c]pyridin-4-yl)-4-(tetrahydro-2H-pyran-3-yloxy)phenyl]ethanesulfonamide] |
| 3.2 nM | 7 min | 10 min | 27 min | 10.5 nM | 36.2 nM |  | COc1ccccc1Oc1ccc(S(C)(=O)=O)cc1-c1cn(C)c(=O)c2[nH]ccc12 [Example 178, 4-[2-(2-methoxyphenoxy)-5-(methylsulfonyl)phenyl]-6-methyl-1,6-dihydro-7H-pyrrolo[2,3-c]pyridin-7-one] |
| 1.1 nM | 7 min | 36 min | > 120 min | 8.7 nM | 56 nM |  | Cn1cc(-c2cc(S(N)(=O)=O)ccc2Oc2ccccc2)c2cc[nH]c2c1=O [Example 95, 3-(6-methyl-7-oxo-6,7-dihydro-1H-pyrrolo[2,3-c]pyridin-4-yl)-4-phenoxybenzenesulfonamide] |
| 1.7 nM | > 120 min | > 120 min | 68 min | 10.1 nM | 246 nM |  | Cn1cc(-c2cc(S(C)(=O)=O)ccc2Oc2ccc(F)cc2F)c2cc(C(N)=O)[nH]c2c1=O [Example 252, 4-[2-(2,4-difluorophenoxy)-5-(methylsulfonyl)phenyl]-6-methyl-7-oxo-6,7-dihydro-1H-pyrrolo[2,3-c]pyridine-2-carboxamide] |
| 0.51 nM |  | 10 min | 13.6 min | 2.8 nM | 29.8 nM | 1 min | Cn1cc(-c2cc(CN3CCCS3(=O)=O)ccc2Oc2ccccc2)c2cc[nH]c2c1=O [Example 41, 4-{5-[(1,1-dioxido-1,2-thiazolidin-2-yl)methyl]-2-phenoxyphenyl}-6-methyl-1,6-dihydro-7H-pyrrolo[2,3-c]pyridin-7-one] |
| 6.7 nM | 26 min | > 120 min | > 120 min | 1.1 nM | 71.8 nM |  | Cn1cc(-c2cc(NS(C)(=O)=O)ccc2OC2CCOCC2)c2cc[nH]c2c1=O [Example 29, N-[3-(6-methyl-7-oxo-6,7-dihydro-1H-pyrrolo[2,3-c]pyridin-4-yl)-4-(tetrahydro-2H-pyran-4-yloxy)phenyl]methanesulfonamide] |
| 5.1 nM | 32 min | 15 min | 33 min | 14.5 nM | 25 nM |  | COCCS(=O)(=O)Nc1ccc(Oc2ccc(F)cc2F)c(-c2cn(C)c(=O)c3[nH]ccc23)c1 [Example 236, N-[4-(2,4-difluorophenoxy)-3-(6-methyl-7-oxo-6,7-dihydro-1H-pyrrolo[2,3-c]pyridin-4-yl)phenyl]-2-methoxyethanesulfonamide] |
| 4.2 nM | 13 min | 33 min | 92 min | 7.4 nM | 123 nM |  | Cn1cc(-c2cc(C(N)=O)ccc2Oc2ccccc2)c2cc[nH]c2c1=O [Example 19, 3-(6-methyl-7-oxo-6,7-dihydro-1H-pyrrolo[2,3-c]pyridin-4-yl)-4-phenoxybenzamide] |
